8 molecules from PMC8815882, “Screening the pandemic response box identified benzimidazole carbamates, Olorofim and ravuconazole as promising drug candidates for the treatment of eumycetoma” (PLoS Neglected Tropical Diseases, 2022) can be followed below.

The experiment relates to M. mycetomatis genome strain MM55. Nature of the experiment: CLSI M38-A2 based in vitro susceptibility screening (XTT or resazurin), growth at fixed concentration. The format is cell-based, Madurella mycetomatis. To be noted: Madurella mycetomatis; for Percent fungal survival at 100 µM: read-out: Percentage survival at 100um, 100 uM A (second replicate column).
Where [1] appears, read: mean of three, M. mycetomatis MM55, read-out: Percentage survival at 25um, 25 uM mean.
Setting [2] is: replicate A, M. mycetomatis MM55, read-out: Percentage survival at 25um, 25 um A.
[3] abbreviates: replicate B, M. mycetomatis MM55, read-out: Percentage survival at 25um, 25 uM B.
[4] abbreviates: replicate C, M. mycetomatis MM55, read-out: Percentage survival at 25um, 25 uM C.
Setting [5] is: mean of three, M. mycetomatis MM55, read-out: Percentage survival at 100um, 100 uM mean.
[6] abbreviates: replicate 1, M. mycetomatis MM55, read-out: Percentage survival at 100um, 100 uM A (first replicate column).
Setting [7] is: replicate 2, M. mycetomatis MM55.
Setting [8] is: replicate 3, M. mycetomatis MM55, read-out: Percentage survival at 100um, 100 uM A (third replicate column).
Where [9] appears, read: replicate A, read-out: Percentage survival at 25um, 25 um A.
The mark [10] stands for this setting: replicate B, read-out: Percentage survival at 25um, 25 uM B.
The mark [11] stands for this setting: replicate C, read-out: Percentage survival at 25um, 25 uM C.
Where [12] appears, read: replicate 1, read-out: Percentage survival at 100um, 100 uM A (first replicate column).
The mark [13] stands for this setting: replicate 3, read-out: Percentage survival at 100um, 100 uM A (third replicate column).
The mark [14] stands for this setting: mean of replicates, MM55, read-out: Percentage survival at 25um, 25 uM mean.
Setting [15] is: replicate A, MM55, read-out: Percentage survival at 25um, 25 um A.
The mark [16] stands for this setting: replicate B, MM55, read-out: Percentage survival at 25um, 25 uM B.
The mark [17] stands for this setting: replicate C, MM55, read-out: Percentage survival at 25um, 25 uM C.
Where [18] appears, read: mean of replicates, MM55, read-out: Percentage survival at 100um, 100 uM mean.
The mark [19] stands for this setting: replicate 1, MM55, read-out: Percentage survival at 100um, 100 uM A.
Where [20] appears, read: replicate 2, MM55, read-out: Percentage survival at 100um, 100 uM A.
[21] abbreviates: replicate 3, MM55, read-out: Percentage survival at 100um, 100 uM A.

Like-named read-outs stand apart in the source and are kept apart here.

As for `Nc1cc(N)c2nc(-c3ccccc3)c(Nc3ccc(F)cc3)nc2c1` [MMV1581554], the activity at 25 µM runs as follows: under setting [1], 92.5%; under setting [2], 97.1%; under setting [3], 91.3%; under setting [4], 89.3%. Also, the activity at 100 µM reads like this: under setting [5], 89.9%; under setting [6], 116%; under setting [8], 73.1%. Besides, under setting [7], the Percent fungal survival at 100 µM stood at 80.3%.
In the case of `CCOC(=O)N[C@@H]1CC[C@@H]2[C@@H](C1)C[C@H]1C(=O)O[C@H](C)[C@H]1[C@H]2/C=C/c1ccc(-c2cccc(F)c2)cn1` [MMV1593515], the activity at 25 µM (mean of three replicates, read-out: Percentage survival at 25um, 25 uM mean) came out at 69.2%; the activity at 25 µM under setting [9] amounted to 68.2%; the activity at 25 µM under setting [10] was 80.3%; the activity at 25 µM under setting [11] was 59.1%. Besides, the activity at 100 µM came to 72.9% (mean of three replicates, read-out: Percentage survival at 100um, 100 uM mean); 71.5% under setting [12]; 82% under setting [13]. Also, where the note is “replicate 2”, the Percent fungal survival at 100 µM was determined as 65.2%.
With `COCCn1cnc2c(=O)[nH]c(Nc3ccccc3)nc21` [MMV1782103], the activity at 25 µM reads like this: under setting [14], 86.8%; under setting [15], 90%; under setting [16], 97.7%; under setting [17], 72.6%. Moreover, the activity at 100 µM under setting [18] was 75.1%, the activity at 100 µM under setting [19] stood at 87.4%, the activity at 100 µM under setting [20] was determined as 60.4% and the activity at 100 µM under setting [21] was determined as 77.5%.
On to `CN1CCN(c2ccc3[nH]c(-c4ccc5[nH]c(-c6ccc(O)cc6)nc5c4)nc3c2)CC1` [MMV020752], for which the activity at 25 µM was 67.2% under setting [1], 67.7% under setting [2], 71.6% under setting [3] and 62.2% under setting [4]. The activity at 100 µM under setting [5] is 24.3%, the activity at 100 µM under setting [6] was determined as 53.4% and the activity at 100 µM under setting [8] is 4.7%. Besides, the Percent fungal survival at 100 µM under setting [7] worked out at 14.6%.
On to `O=C(Nc1nnc(-c2ccccc2)o1)c1ccc(F)cc1` [MMV1578578], for which the activity at 25 µM under setting [1] is 24.9%, the activity at 25 µM under setting [2] was 69.5%, the activity at 25 µM under setting [3] was determined as 1.3% and the activity at 25 µM under setting [4] amounted to 3.74%. The activity at 100 µM under setting [5] was 0.7%, the activity at 100 µM under setting [6] is -1.02% and the activity at 100 µM under setting [8] was found to be 1.43%. Further, under setting [7], the Percent fungal survival at 100 µM stood at 1.69%.
For the molecule `Nc1nc(C(F)(F)F)cc2c1[nH]c(=O)n2Cc1ccccc1` [MMV1634389], the activity at 25 µM (mean of replicates, read-out: Percentage survival at 25um, 25 uM mean) was determined as 83.5%; the activity at 25 µM under setting [9] is 74.5%; the activity at 25 µM under setting [10] is 96.8%; the activity at 25 µM under setting [11] stood at 79.4%. The activity at 100 µM runs as follows: (mean of replicates, read-out: Percentage survival at 100um, 100 uM mean) 61.6%; under setting [12], 36.1%; under setting [13], 81.6%. Where the note is “replicate 2”, the Percent fungal survival at 100 µM turned out to be 67.1%.
On to `CC(=O)Oc1ccccc1C(=O)Nc1ncc([N+](=O)[O-])s1` [MMV688991], for which the activity at 25 µM by setting is: under setting [14], 103%; under setting [15], 90%; under setting [16], 88.2%; under setting [17], 131%. For the same molecule, the activity at 100 µM amounted to 68% under setting [18], 76.1% under setting [19], 57.8% under setting [20] and 70.1% under setting [21].
`C[C@@H](NC(=O)c1ccccc1-c1ccccc1)B(O)O` [MMV1582493]: the activity at 25 µM (mean, read-out: Percentage survival at 25um, 25 uM mean) was found to be 84.3%; the activity at 25 µM under setting [9] came out at 92.1%; the activity at 25 µM under setting [10] is 87.2%; the activity at 25 µM under setting [11] was 73.6%. Moreover, the activity at 100 µM by setting is: (mean, read-out: Percentage survival at 100um, 100 uM mean) 83.3%; (replicate (first column), read-out: Percentage survival at 100um, 100 uM A) 92.5%; (replicate (second column), read-out: Percentage survival at 100um, 100 uM A) 73.6%; (replicate (third column), read-out: Percentage survival at 100um, 100 uM A) 83.9%.
